Data published in the NIST ThermoML archive (doi:10.1016/j.jct.2014.06.012).

Experiment: molar heat capacity at constant pressure
Details: 101.33 kPa, Vacuum adiabatic calorimetry

O=P([O-])([O-])[O-].[Cs+].[Mn+2] [cesium manganese(II) phosphate]
Details	molar heat capacity at constant pressure [J/K/mol]
5 K, Crystal 3	1.713
5.85 K, Crystal 3	2.328
6 K, Crystal 3	2.918
6.04 K, Crystal 3	3.492
6.34 K, Crystal 3	4.989
6.38 K, Crystal 3	5.654
6.59 K, Crystal 3	21.87
6.73 K, Crystal 3	13.64
6.86 K, Crystal 3	41.07
6.9 K, Crystal 2	4.573
6.9 K, Crystal 3	4.282
7 K, Crystal 2	4.623
7.01 K, Crystal 2	15.8
7.32 K, Crystal 2	9.146
7.33 K, Crystal 2	6.236
7.8 K, Crystal 2	5.986
8 K, Crystal 2	4.972
8.09 K, Crystal 2	5.321
8.15 K, Crystal 2	5.82
8.3 K, Crystal 2	5.488
8.79 K, Crystal 2	5.238
9 K, Crystal 2	5.271
9.13 K, Crystal 2	5.488
9.54 K, Crystal 2	5.404
9.95 K, Crystal 2	5.654
10 K, Crystal 2	5.579
10.3 K, Crystal 2	5.654
11.03 K, Crystal 2	5.903
11.57 K, Crystal 2	6.319
12.47 K, Crystal 2	6.818
12.55 K, Crystal 2	6.901
13.98 K, Crystal 2	7.816
15 K, Crystal 2	8.647
15.39 K, Crystal 2	8.98
16.79 K, Crystal 2	10.24
18.22 K, Crystal 2	11.6
19.65 K, Crystal 2	12.95
20 K, Crystal 2	13.29
20.79 K, Crystal 2	14.05
21.93 K, Crystal 2	15.15
23.17 K, Crystal 2	16.48
24.41 K, Crystal 2	17.81
25 K, Crystal 2	18.42
26.16 K, Crystal 2	19.68
27.91 K, Crystal 2	21.56
29.7 K, Crystal 2	23.55
30 K, Crystal 2	23.85
30.98 K, Crystal 2	25
31.52 K, Crystal 2	25.55
32.86 K, Crystal 2	26.96
34.2 K, Crystal 2	28.45
35 K, Crystal 2	29.29
36 K, Crystal 2	30.31
37.79 K, Crystal 2	32.15
39.59 K, Crystal 2	33.82
40 K, Crystal 2	34.22
41.48 K, Crystal 2	35.49
43.18 K, Crystal 2	36.82
45 K, Crystal 2	38.16
45.05 K, Crystal 2	38.3
46.84 K, Crystal 2	39.62
48.73 K, Crystal 2	41.07
50 K, Crystal 2	42.05
50.55 K, Crystal 2	42.5
52.38 K, Crystal 2	44
54.21 K, Crystal 2	45.4
56.04 K, Crystal 2	46.79
57.87 K, Crystal 2	48.08
59.7 K, Crystal 2	49.36
60 K, Crystal 2	49.65
61.53 K, Crystal 2	50.69
63.37 K, Crystal 2	52
65.2 K, Crystal 2	53.24
67.03 K, Crystal 2	54.47
68.87 K, Crystal 2	55.66
70 K, Crystal 2	56.41
70.7 K, Crystal 2	56.85
72.42 K, Crystal 2	57.92
73.98 K, Crystal 2	58.82
75.54 K, Crystal 2	59.72
76.62 K, Crystal 2	60.35
77.7 K, Crystal 2	60.98
78.93 K, Crystal 2	61.69
79.65 K, Crystal 2	62.09
80 K, Crystal 2	62.23
80.15 K, Crystal 2	62.42
81.49 K, Crystal 2	63.07
82.19 K, Crystal 2	63.43
82.8 K, Crystal 2	63.72
84.9 K, Crystal 2	64.7
87.44 K, Crystal 2	66.08
89.1 K, Crystal 2	66.98
90 K, Crystal 2	67.48
92.52 K, Crystal 2	68.77
95.06 K, Crystal 2	70.08
97.6 K, Crystal 2	71.4
99.96 K, Crystal 2	72.65
100 K, Crystal 2	72.69
102.68 K, Crystal 2	74.12
105.79 K, Crystal 2	75.84
108.49 K, Crystal 2	77.53
110 K, Crystal 2	78.18
110.3 K, Crystal 2	78.39
111.89 K, Crystal 2	79.04
112.89 K, Crystal 2	79.62
113.69 K, Crystal 2	80.09
115.29 K, Crystal 2	81.13
116.83 K, Crystal 2	82.04
118.24 K, Crystal 2	82.7
119.21 K, Crystal 2	83.23
120 K, Crystal 2	83.73
120.39 K, Crystal 2	84.89
123.17 K, Crystal 2	91.87
124.56 K, Crystal 2	100.77
125.56 K, Crystal 2	106.26
126.99 K, Crystal 2	117.73
127 K, Crystal 1	86.55
127 K, Crystal 2	86.55
128.36 K, Crystal 1	113.16
128.73 K, Crystal 1	107.76
130 K, Crystal 1	87.8
130.58 K, Crystal 1	93.29
131.88 K, Crystal 1	89.3
132.69 K, Crystal 1	88.3
133.47 K, Crystal 1	88.38
134.22 K, Crystal 1	88.8
135.31 K, Crystal 1	89.3
136.46 K, Crystal 1	89.88
137.83 K, Crystal 1	90.46
138.61 K, Crystal 1	90.79
139.44 K, Crystal 1	91.13
140 K, Crystal 1	91.54
140.05 K, Crystal 1	91.46
141.84 K, Crystal 1	92.21
143.65 K, Crystal 1	92.87
146.58 K, Crystal 1	93.95
149.52 K, Crystal 1	95.03
150 K, Crystal 1	95.37
152.45 K, Crystal 1	96.2
155.39 K, Crystal 1	97.36
158.13 K, Crystal 1	98.36
160 K, Crystal 1	99.03
160.88 K, Crystal 1	99.36
163.62 K, Crystal 1	100.44
166.37 K, Crystal 1	101.44
168.91 K, Crystal 1	102.35
170 K, Crystal 1	102.68
171.45 K, Crystal 1	103.27
174.38 K, Crystal 1	104.26
177.32 K, Crystal 1	105.26
180 K, Crystal 1	106.18
180.25 K, Crystal 1	106.26
183.19 K, Crystal 1	107.26
186.12 K, Crystal 1	108.17
189.06 K, Crystal 1	109.17
190 K, Crystal 1	109.58
191.79 K, Crystal 1	110.08
194.53 K, Crystal 1	111
197.27 K, Crystal 1	111.91
199.58 K, Crystal 1	112.58
200 K, Crystal 1	112.74
201.38 K, Crystal 1	113.08
203.92 K, Crystal 1	113.83
206.38 K, Crystal 1	114.57
209.38 K, Crystal 1	115.65
210 K, Crystal 1	115.82
212.32 K, Crystal 1	116.57
215.39 K, Crystal 1	117.48
218.18 K, Crystal 1	118.31
219.88 K, Crystal 1	118.73
220 K, Crystal 1	118.81
221.58 K, Crystal 1	119.23
224.09 K, Crystal 1	119.98
226.59 K, Crystal 1	120.73
229.5 K, Crystal 1	121.56
230 K, Crystal 1	121.56
232.41 K, Crystal 1	122.39
235.32 K, Crystal 1	123.3
238.23 K, Crystal 1	124.22
240 K, Crystal 1	124.3
